Laboratory results reported in ChEMBL document CHEMBL1201862, “PubChem BioAssay data set” (2004).
Activity calls are given as the source filed them.

What was measured:
Streptococcus = assay: GAS UMAA2166 growth inhibition – luminescence, BacTiterGlo, counter-screen for streptokinase expression inhibitor project, dose response (AID 1915); assay type: functional, organism-based;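 further: potency for reduction of bacterial viability or growth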
[1] = system: Streptococcus sp. 'group A'; assay: Streptococcus pyogenes SK(-)GAS viability under kanamycin – luminescence, BacTiterGlo, confirmation, counter-screen for streptokinase expression inhibitor project, dose response (AID 1900); assay type: functional, organism-based
[2] = Luminescence Cell-Based Dose Retest to Confirm Inhibitors of Cancer Stem Cells. [Related pubchem assays (depositor defined):AID2717, AID2721]; assay type: functional; details: Homo sapiens
[3] = molecular target: T1, Corticotropin-releasing factor receptor 2/Corticotropin-releasing factor-binding protein (Homo sapiens, UniProt P24387+Q13324); assay: activators of CRF receptor 2 with binding protein – uHTS hits, confirmation (AID 602473); assay type: functional; details: read-out: EC50_Mean
T1 sequence (Q13324 whole entry): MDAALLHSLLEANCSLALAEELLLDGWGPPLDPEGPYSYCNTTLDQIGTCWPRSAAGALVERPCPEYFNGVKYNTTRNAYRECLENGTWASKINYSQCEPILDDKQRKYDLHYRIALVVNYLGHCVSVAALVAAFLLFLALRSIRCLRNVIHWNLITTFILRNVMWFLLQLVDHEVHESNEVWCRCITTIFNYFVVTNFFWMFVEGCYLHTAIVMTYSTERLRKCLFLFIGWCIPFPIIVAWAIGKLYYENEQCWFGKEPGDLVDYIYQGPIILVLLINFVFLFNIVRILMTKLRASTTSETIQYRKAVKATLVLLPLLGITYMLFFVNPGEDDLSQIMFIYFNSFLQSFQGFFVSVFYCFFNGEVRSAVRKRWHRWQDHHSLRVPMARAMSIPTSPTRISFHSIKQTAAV
T1 sequence (P24387 whole entry): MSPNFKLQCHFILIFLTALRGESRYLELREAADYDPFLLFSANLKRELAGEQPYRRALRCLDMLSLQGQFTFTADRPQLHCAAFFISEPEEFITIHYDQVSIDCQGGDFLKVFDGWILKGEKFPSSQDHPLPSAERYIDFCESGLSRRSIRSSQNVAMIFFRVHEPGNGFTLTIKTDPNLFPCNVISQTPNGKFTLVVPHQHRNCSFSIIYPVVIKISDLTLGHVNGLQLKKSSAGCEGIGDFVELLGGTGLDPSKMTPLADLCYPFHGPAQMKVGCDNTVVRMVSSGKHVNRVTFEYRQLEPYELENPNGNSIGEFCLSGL

Cysteine protease ATG4B = Cysteine protease ATG4B (Homo sapiens, UniProt Q9Y4P1); assay type: functional;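 further: Fluorescence-based dose-response confirmation assay measuring inhibition of ATG4B activity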
Phospholipase A2 = Phospholipase A2 (Homo sapiens, UniProt P04054); assay type: functional;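 further: confirmatory dose-response counterscreen on phospholipase A2, testing hits that came from an ultra-high-throughput screen for ATG4B inhibitors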
Streptokinase A = molecular target: T2, Streptokinase A (Streptococcus pyogenes serotype M1, UniProt P10520); assay: viability-normalized secreted streptokinase activity reduction – plasminogen activation absorbance, OD405, dose response (AID 1914); assay type: functional, Streptococcus pyogenes M1 GAS;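 further: secreted streptokinase activity via plasminogen activation per viability signal from cell pellet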
T2 sequence (P10520 whole entry): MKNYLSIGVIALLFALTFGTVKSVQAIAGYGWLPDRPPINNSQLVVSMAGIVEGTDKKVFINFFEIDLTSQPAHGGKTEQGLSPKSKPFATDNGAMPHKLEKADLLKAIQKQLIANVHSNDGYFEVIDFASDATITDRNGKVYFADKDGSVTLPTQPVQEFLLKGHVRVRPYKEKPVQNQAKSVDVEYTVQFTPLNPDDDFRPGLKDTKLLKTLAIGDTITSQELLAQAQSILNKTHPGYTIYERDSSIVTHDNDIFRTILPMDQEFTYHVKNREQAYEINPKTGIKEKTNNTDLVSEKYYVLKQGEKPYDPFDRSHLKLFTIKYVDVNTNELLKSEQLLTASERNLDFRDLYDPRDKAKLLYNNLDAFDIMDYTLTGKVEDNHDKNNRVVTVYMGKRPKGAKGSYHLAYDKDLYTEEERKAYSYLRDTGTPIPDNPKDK

[4] = molecular target: T3, Voltage-gated N-type calcium channel alpha-1B subunit/Amyloid beta A4 precursor protein-binding family A member 1 (Homo sapiens, UniProt Q00975+Q02410); assay type: protein assay
[5] = molecular target: T4, Bifunctional protein GlmU (Mycobacterium tuberculosis, UniProt P9WMN3); assay: Inhibitors of Mycobacterial Glucosamine-1-phosphate acetyl transferase (GlmU). Secondary screen.; set-up: species or system Mycobacterium tuberculosis H37Rv
T4 sequence (P9WMN3 whole entry): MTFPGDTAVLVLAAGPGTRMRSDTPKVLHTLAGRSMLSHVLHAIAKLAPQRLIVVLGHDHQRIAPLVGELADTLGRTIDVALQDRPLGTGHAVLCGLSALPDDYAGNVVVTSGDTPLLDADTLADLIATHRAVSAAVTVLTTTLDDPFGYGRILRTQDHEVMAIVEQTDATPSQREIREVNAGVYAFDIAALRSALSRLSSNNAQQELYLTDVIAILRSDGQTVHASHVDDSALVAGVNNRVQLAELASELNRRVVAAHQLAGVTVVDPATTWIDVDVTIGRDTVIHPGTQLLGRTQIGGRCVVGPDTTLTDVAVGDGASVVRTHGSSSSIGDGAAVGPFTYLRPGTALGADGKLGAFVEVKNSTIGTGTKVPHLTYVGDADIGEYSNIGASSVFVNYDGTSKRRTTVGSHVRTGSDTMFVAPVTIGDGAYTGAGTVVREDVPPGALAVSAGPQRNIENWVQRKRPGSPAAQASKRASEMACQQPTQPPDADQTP

Caspase-6 = molecular target: T5, Caspase-6 (Homo sapiens, UniProt P55212); assay: inhibition of CASP6 peptide cleavage – biochemical, VEID-R110 fluorescence, cherry-pick, dose response (AID 720632)
T5 sequence (P55212 whole entry): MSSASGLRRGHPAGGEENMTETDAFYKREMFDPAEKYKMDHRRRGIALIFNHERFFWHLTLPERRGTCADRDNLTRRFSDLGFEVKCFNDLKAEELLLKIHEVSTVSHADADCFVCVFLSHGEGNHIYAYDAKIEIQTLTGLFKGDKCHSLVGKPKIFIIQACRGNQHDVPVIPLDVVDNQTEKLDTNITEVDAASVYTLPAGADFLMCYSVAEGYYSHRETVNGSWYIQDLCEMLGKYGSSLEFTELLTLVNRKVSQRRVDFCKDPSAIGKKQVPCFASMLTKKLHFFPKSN

[6] = molecular target: Histone-lysine N-methyltransferase NSD2 (Homo sapiens, UniProt O96028); assay type: biochemical
[7] = molecular target: T3, Voltage-gated N-type calcium channel alpha-1B subunit/Amyloid beta A4 precursor protein-binding family A member 1; assay type: protein assay; remark: listed apart in the source
[8] = blockade of melanocortin 4 receptor signaling – cell-based, plate reader, cherry pick, counter-screen for LGR2 antagonist project, dose response (AID 743444); assay type: functional;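 further: transfected HEK 293 cells stimulated with alpha-MSH peptide; potency of inhibitors of the alpha-MSH evoked signal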
[9] = blockers of bursicon-stimulated LGR2 cAMP reporter – cell-based, HEK293, CRE-luciferase reporter, cherry pick, set 2, dose response (AID 743343); assay type: functional;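 further: transfected cells were stimulated with diluted bursicon conditioned medium after compound addition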
[10] = molecular target: Beta-adrenergic receptor kinase 1 (Homo sapiens, UniProt P25098); assay: aptamer displacement from bead-bound GRK2 – biochemical, cherry pick 1, bead flow cytometry, dose response (AID 504500)
HEK293 = assay: EBV LMP1 TES2 canonical NF-kB signalling blockers – cell-based, HEK293, luciferase, cherry-pick, dose response (AID 588343); assay type: functional; details: Homo sapiens

T3 sequence (Q00975 whole entry): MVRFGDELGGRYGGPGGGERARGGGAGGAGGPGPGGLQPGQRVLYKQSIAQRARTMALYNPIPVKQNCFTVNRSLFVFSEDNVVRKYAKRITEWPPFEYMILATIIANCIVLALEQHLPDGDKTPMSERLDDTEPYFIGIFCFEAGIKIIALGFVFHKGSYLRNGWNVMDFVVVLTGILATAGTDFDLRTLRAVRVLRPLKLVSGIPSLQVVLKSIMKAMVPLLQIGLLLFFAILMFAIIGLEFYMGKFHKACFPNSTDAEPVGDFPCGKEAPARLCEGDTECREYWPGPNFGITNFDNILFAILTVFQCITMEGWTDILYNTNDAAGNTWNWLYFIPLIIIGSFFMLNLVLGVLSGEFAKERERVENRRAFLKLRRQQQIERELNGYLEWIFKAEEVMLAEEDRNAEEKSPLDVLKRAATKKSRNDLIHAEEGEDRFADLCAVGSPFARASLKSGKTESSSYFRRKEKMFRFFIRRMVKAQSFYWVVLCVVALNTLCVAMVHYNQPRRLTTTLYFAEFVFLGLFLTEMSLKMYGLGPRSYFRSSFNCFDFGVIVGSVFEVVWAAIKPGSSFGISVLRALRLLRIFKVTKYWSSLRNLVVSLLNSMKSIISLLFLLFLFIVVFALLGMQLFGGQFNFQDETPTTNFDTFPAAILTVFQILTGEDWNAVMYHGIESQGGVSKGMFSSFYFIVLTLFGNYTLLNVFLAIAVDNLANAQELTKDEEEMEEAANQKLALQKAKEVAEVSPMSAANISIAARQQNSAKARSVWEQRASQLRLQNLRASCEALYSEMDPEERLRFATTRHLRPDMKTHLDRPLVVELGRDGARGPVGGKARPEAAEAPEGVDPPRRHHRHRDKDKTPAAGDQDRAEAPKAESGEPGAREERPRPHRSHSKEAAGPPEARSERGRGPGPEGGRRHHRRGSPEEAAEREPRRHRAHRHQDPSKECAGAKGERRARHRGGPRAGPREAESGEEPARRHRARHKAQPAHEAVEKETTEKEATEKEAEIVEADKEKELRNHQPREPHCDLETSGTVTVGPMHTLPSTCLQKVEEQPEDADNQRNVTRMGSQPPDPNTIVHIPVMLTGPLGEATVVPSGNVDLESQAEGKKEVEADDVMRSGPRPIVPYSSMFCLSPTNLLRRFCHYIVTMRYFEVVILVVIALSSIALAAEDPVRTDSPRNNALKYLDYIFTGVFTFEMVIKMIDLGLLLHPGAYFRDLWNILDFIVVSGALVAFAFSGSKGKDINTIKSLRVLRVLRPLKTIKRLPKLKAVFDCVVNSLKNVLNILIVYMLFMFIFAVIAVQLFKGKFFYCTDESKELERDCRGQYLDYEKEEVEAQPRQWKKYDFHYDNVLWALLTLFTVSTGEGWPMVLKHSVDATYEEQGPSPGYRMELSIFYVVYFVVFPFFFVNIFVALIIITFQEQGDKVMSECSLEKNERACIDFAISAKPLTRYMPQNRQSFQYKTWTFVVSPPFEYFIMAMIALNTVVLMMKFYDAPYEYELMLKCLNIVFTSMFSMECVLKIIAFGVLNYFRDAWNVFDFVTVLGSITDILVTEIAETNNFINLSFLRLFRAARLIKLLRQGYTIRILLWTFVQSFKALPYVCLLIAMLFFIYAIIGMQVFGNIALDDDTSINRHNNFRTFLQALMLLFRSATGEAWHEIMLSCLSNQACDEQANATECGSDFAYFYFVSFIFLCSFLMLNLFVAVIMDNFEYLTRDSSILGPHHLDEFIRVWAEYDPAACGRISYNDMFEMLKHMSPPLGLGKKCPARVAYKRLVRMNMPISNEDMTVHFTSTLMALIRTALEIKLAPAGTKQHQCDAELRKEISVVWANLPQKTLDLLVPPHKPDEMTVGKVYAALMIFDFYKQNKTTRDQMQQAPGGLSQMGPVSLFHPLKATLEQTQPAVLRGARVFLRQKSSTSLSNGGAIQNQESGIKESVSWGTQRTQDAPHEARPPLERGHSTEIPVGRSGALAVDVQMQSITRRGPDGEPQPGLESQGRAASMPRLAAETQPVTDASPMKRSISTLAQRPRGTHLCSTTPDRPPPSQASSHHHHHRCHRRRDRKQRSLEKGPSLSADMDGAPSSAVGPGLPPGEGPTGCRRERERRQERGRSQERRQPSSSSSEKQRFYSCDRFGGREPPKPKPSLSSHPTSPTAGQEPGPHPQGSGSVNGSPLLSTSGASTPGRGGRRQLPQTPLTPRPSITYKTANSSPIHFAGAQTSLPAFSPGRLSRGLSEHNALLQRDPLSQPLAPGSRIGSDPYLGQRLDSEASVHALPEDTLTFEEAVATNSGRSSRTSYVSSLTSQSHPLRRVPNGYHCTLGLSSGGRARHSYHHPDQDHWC
T3 sequence (Q02410 whole entry): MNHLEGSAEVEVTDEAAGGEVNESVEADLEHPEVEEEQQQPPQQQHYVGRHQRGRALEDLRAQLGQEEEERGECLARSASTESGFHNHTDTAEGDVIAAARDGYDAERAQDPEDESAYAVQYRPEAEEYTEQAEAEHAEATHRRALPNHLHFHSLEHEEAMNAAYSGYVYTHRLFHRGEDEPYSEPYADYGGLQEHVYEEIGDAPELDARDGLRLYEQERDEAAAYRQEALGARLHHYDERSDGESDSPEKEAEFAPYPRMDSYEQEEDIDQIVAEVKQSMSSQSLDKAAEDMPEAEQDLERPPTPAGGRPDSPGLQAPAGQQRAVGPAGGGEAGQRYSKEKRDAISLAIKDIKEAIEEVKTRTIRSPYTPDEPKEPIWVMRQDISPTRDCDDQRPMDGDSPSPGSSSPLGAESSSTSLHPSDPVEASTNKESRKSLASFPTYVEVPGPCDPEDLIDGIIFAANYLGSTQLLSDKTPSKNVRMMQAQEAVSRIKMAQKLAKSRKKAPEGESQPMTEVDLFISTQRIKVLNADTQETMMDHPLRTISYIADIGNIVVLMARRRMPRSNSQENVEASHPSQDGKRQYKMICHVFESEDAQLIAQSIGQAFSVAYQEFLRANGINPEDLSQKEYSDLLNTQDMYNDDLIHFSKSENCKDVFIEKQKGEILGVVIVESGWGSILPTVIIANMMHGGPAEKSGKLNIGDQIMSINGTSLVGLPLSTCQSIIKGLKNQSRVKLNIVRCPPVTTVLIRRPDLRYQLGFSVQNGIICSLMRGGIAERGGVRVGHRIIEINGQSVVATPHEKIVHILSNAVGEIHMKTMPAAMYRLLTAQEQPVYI
Sequence of Beta-adrenergic receptor kinase 1 (P25098 whole entry): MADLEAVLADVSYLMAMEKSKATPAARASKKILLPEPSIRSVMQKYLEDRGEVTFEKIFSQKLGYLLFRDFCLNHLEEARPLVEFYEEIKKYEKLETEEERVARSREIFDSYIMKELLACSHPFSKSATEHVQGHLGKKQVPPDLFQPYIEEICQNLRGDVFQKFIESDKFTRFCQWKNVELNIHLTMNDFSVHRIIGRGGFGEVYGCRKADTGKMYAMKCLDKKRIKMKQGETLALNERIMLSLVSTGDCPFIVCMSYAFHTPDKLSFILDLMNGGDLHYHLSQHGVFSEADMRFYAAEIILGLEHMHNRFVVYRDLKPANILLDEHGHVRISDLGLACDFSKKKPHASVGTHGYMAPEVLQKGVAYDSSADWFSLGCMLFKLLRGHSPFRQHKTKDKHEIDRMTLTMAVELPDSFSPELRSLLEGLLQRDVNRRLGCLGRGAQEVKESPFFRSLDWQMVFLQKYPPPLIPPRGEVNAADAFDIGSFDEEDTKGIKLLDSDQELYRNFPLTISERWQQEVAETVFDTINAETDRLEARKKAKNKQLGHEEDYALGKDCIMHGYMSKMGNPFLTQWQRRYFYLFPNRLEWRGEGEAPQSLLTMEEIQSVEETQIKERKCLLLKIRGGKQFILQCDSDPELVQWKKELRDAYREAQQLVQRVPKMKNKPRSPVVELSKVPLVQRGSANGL
Sequence of Phospholipase A2 (P04054 whole entry): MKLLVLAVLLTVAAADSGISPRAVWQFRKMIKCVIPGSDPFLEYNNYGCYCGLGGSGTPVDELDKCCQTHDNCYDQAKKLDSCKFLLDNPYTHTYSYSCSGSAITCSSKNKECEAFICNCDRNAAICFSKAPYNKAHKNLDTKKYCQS
Sequence of Cysteine protease ATG4B (Q9Y4P1 whole entry): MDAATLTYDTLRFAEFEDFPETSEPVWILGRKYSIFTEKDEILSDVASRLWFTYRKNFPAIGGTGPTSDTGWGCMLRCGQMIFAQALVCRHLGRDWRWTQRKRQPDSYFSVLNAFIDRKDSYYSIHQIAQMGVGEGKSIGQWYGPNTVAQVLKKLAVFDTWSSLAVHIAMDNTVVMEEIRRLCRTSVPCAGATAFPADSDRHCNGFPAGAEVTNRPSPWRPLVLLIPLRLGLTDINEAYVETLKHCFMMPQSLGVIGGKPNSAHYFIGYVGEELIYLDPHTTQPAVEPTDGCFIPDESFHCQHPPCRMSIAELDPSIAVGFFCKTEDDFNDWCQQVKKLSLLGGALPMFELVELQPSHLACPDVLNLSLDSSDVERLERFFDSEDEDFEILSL

Compound	EC50 (Streptococcus)	EC50 [1]	AC50 [2]	EC50 [3]	IC50 (Cysteine protease ATG4B)	IC50 (Phospholipase A2)	EC50 (Streptokinase A)	IC50 [4]	IC50 [5]	AC50 (Caspase-6)	AC50 [6]	IC50 [7]	AC50 [8]	AC50 [9]	EC50 [10]	AC50 (HEK293)
Cc1cc(C)cc(-n2c(C)cc(/C=C3\C(=N)N4N=C(CC(C)C)SC4=NC3=O)c2C)c1	9.46 µM (active)	4.57 µM (active)	2.82 µM (active)	6.77 µM (active)	3.65 µM (active)	2.3 µM (active)	> 50 µM (not active)									
O=C(O)c1c2c(nc3ccccc13)/C(=C/c1ccc(O)cc1)CC2								18.4 µM (active)	124 µM (active)	2 µM (active)	9.03 µM (active)	3.85 µM (active)	6.44 µM (active)	6.42 µM (active)	33.3 µM (inactive)	1.93 µM (active)
